Assay [1] concerns IL-17 production in mouse splenocytes. Put plainly: Suppressive effect on IL-17 production by IL-23 stimulation in mouse splenocytes. The assay is classed as cell-based. The settings on record: Splenocyte, 72 h, at 5 μmol/L of the test compound, 10 ng/mL human IL-23, 3 days, read-out: IL-17 production inhibition rate (%). On the procedure:
Using mouse splenocytes, the suppressive effect of the cyclic amine derivative (I) or a pharmacologically acceptable salt thereof on IL-17 production by IL-23 stimulation was evaluated by a partially modified method mentioned in The Journal of Biological Chemistry, 2003, Vol. 278, No. 3, p. 1910-1914.
A single cell suspension was prepared from the spleen of C57BL/6J mice (male, 7 to 23 weeks old) (Charles River Laboratories Japan, Inc.) and splenocytes were prepared using Histopaque-1083 (Sigma-Aldrich Japan). The culture medium was used by adding 10% FBS (Gibco), 50 U/mL of penicillin 50 μg/mL of streptomycin (Gibco), 50 μmol/L of 2-mercaptoethanol (Gibco), and 100 U/mL of human IL-2 (Cell Science & Technology Institute, Inc.) to RPMI1640 medium (Gibco). The test compound was dissolved in DMSO and then diluted with the culture medium to have a final concentration of DMSO of 0.1% before use. Splenocytes (3×10^5 cells/well) prepared in the culture medium were seeded in wells of a 96-well flat-bottom plate (Corning Incorporated), the test compound and 10 ng/mL of human IL-23 (R & D systems, Inc.) were added thereto, and the cells were cultured at 37° C. under 5% CO2 for 3 days. A well without addition of human IL-23 and without addition of the test compound and a well with addition of human IL-23 and without addition of the test compound were prepared. After completion of the culture, the culture supernatant was collected and the IL-17 production amount in the supernatant was determined by ELISA method (R & D systems, Inc.).
The IL-17 production inhibition rate (%) was calculated from Formula 2. IL-17 production inhibition rate(%)=(1−((IL-17 production amount with addition of IL-23 and with addition of the test compound)−(IL-17 production amount without addition of IL-23 and without addition of the test compound))/((IL-17 production amount with addition of IL-23 and without addition of the test compound)−(IL-17 production amount without addition of IL-23 and without addition of the test compound)))×100 Formula 2

For assay [2], the target named is T1, ligand-binding domain of RORγ (RORγ-LBD) (Homo sapiens, UniProt P51449).
T1 construct: purchased Invitrogen
T1 sequence (P51449 269-508 limits assumed): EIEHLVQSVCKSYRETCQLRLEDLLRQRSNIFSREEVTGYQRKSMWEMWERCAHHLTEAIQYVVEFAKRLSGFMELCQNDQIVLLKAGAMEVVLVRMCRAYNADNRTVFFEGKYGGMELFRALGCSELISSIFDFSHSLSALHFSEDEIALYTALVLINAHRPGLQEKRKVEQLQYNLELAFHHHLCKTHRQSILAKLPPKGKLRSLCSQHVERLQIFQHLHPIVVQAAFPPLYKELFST
Put plainly: Inhibitory effect on RORγ-coactivator binding (LanthaScreen TR-FRET RORγ Coactivator Assay). The settings on record: at 33 μmol/L of the test compound; read-out: RORγ-coactivator binding inhibition rate (%). On the procedure: The inhibitory effect of the cyclic amine derivative (I) or a pharmacologically acceptable salt thereof on the binding between a ligand-binding domain of RORγ (hereinafter referred to as RORγ-LBD) and a coactivator was evaluated using Invitrogen's LanthaScreen™TR-FRET Retinoid-Related Orphan Receptor (ROR) gamma Coactivator Assay kit utilizing time-resolved fluorescence energy transfer (TR-FRET).
The test compound was dissolved in DMSO and diluted with TR-FRET Coregulator Buffer D (Invitrogen) containing 5 mmol/L of DTT to have a final DMSO concentration of 1% before use. To each well of a 384-well black plate (Corning Inc.), 4 nmol/L of GST-fused RORγ-LBD (Invitrogen) diluted with the buffer mentioned above and the test compound were added. A well without addition of the test compound and without addition of GST-fused RORγ-LBD (background) and a well without addition of the test compound and with addition of GST-fused RORγ-LBD (control) were prepared. Next, 150 nmol/L of fluorescein-labeled TRAP220/DRIP-2 (Invitrogen) diluted with the buffer mentioned above and 32 nmol/L of terbium-labeled anti-GST antibody (Invitrogen) were added to each well. After incubating the plate at room temperature for 16 to 24 hours, the fluorescence at 495 nm and 520 nm when excited at 320 nm was measured for each well and the ratio (fluorescence value at 520 nm/fluorescence value at 495 nm) was calculated.
The fold change with addition of the test compound (ratio with addition of the test compound/ratio of the background), the fold change of the control (ratio of the control/ratio of the background), and the fold change of the background (ratio of the background/ratio of the background) were calculated, and then the inhibition rate of binding between RORγ-LBD and a coactivator (hereinafter referred to as RORγ-coactivator binding inhibition rate) (%) was calculated from Formula 1: RORγ-coactivator binding inhibition rate(%)=(1−((Fold change with addition of the test compound)−(Fold change of the background))/((Fold change of the control)−(Fold change of the background)))×100 Formula 1
(In general: TR-FRET usually uses a lanthanide donor and a delayed reading to cut background.)

Broadly, the inhibition is the relative decrease from the control value, in per cent.

Take `CCC(=O)N1CCCCC1C(=O)Nc1ccc(-c2ccccc2OC(F)(F)F)c(Cl)c1` (stereo not drawn) [Example 3, N-(2-chloro-2′-(trifluoromethoxy)-[1,1′-biphenyl]-4-yl)-1-propionylpiperidine-2-carboxamide]: in assay [1], the inhibition at 5 µM came to 98.6%. In addition, the inhibition at 33 µM in assay [2] was 88.2%.
The matching figures for `COCC(=O)N1CCCCC1C(=O)Nc1ccc(-c2ccccc2OC(F)(F)F)c(Cl)c1` (stereo not drawn) [Example 4, N-(2-chloro-2′-(trifluoromethoxy)-[1,1′-biphenyl]-4-yl)-1-(2-methoxyacetyl)piperidine-2-carboxamide]: 99.7% and 90.3%.
Turning to `O=C(Nc1ccc(-c2ccccc2OC(F)(F)F)c(Cl)c1)C1CCCCN1C(=O)CO` (stereo not drawn) [Example 5, N-(2-chloro-2′-(trifluoromethoxy)-[1,1′-biphenyl]-4-yl)-1-(2-hydroxyacetyl)piperidine-2-carboxamide], in assay [1], the inhibition at 5 µM worked out at 99.5%. The inhibition at 33 µM in assay [2] stood at 96.9%.
The like results for `O=C(Nc1ccc(-c2ccccc2OC(F)(F)F)c(Cl)c1)C1CCCCN1C(=O)COC(F)(F)F` (stereo not drawn) [Example 8, N-(2-chloro-2′-(trifluoromethoxy)-[1,1′-biphenyl]-4-yl)-1-(2-(trifluoromethoxy)acetyl)piperidine-2-carboxamide] were, in that order, 99.2% and 95.2%.
The matching figures for `CS(=O)(=O)NCC(=O)N1CCCCC1C(=O)Nc1ccc(-c2ccccc2OC(F)(F)F)c(Cl)c1` (stereo not drawn) [Example 10, N-(2-chloro-2′-(trifluoromethoxy)-[1,1′-biphenyl]-4-yl)-1-(2-(methylsulfonamide)acetyl)piperidine-2-carboxamide]: 98.6% and 100%.
The matching figures for `CN(CC(=O)N1CCCCC1C(=O)Nc1ccc(-c2ccccc2OC(F)(F)F)c(Cl)c1)S(C)(=O)=O` (stereo not drawn) [Example 13, N-(2-chloro-2′-(trifluoromethoxy)-[1,1′-biphenyl]-4-yl)-1-(2-(N-methylmethylsulfonamide)acetyl)piperidine-2-carboxamide]: 98.2% and 101%.
For the molecule `CCS(=O)(=O)N1CCCCC1C(=O)Nc1ccc(-c2ccccc2OC(F)(F)F)c(Cl)c1` (stereo not drawn) [Example 14, N-(2-chloro-2′-(trifluoromethoxy)-[1,1′-biphenyl]-4-yl)-1-(ethylsulfonyl)piperidine-2-carboxamide], the inhibition at 5 µM in assay [1] was found to be 90.5%. In assay [2], the inhibition at 33 µM was 94%.
The like results for `CS(=O)(=O)N1CCCCC1C(=O)Nc1ccc(-c2ccccc2OC(F)(F)F)c(Cl)c1` (stereo not drawn) [Example 15, N-(2-chloro-2′-(trifluoromethoxy)-[1,1′-biphenyl]-4-yl)-1-(methylsulfonyl)piperidine-2-carboxamide] were, in that order, 99.4% and 100%.
In the case of `O=CN1CCCCC1C(=O)Nc1ccc(-c2ccccc2OC(F)(F)F)c(Cl)c1` (stereo not drawn) [Example 16, N-(2-chloro-2′-(trifluoromethoxy)-[1,1′-biphenyl]-4-yl)-1-formylpiperidine-2-carboxamide], the inhibition at 5 µM in assay [1] is 98%. Moreover, in assay [2], the inhibition at 33 µM turned out to be 99.3%.
The matching figures for `NC(=O)N1CCCCC1C(=O)Nc1ccc(-c2ccccc2OC(F)(F)F)c(Cl)c1` (stereo not drawn) [Example 17, N^2-(2-chloro-2′-(trifluoromethoxy)-[1,1′-biphenyl]-4-yl)piperidine-1,2-dicarboxamide]: 91.8% and 93.8%.
`CN(C)C(=O)N1CCCCC1C(=O)Nc1ccc(-c2ccccc2OC(F)(F)F)c(Cl)c1` (stereo not drawn) [Example 18, N^2-(2-chloro-2′-(trifluoromethoxy)-[1,1′-biphenyl]-4-yl)-N^1,N^1-dimethylpiperidine-1,2-dicarboxamide]: in assay [1], the inhibition at 5 µM was 90.8%. The inhibition at 33 µM in assay [2] worked out at 95.9%.
`COC(=O)N1CCCCC1C(=O)Nc1ccc(-c2ccccc2OC(F)(F)F)c(Cl)c1` (stereo not drawn) [Example 19, methyl 2-((2-chloro-2′-(trifluoromethoxy)-[1,1′-biphenyl]-4-yl)carbamoyl)piperidine-1-carboxylate]: the inhibition at 5 µM in assay [1] came out at 99.8%. In assay [2], the inhibition at 33 µM came to 93.4%.

Values taken from patent US10364222B2, “Cyclic amine derivative and medical use thereof” (Toray Industries, Inc., priority 2016, dated 2019).
